Assay: Bioavailability of zinc after administration to the duodenum of rats (plasma zinc AUC vs intravenous zinc acetate)
Details: for absorption promoting action (in words): 10 mg/kg
Protocol: Wistar rats of 8 weeks age were used in this experiment. The rats were fasted for 24 hours before administration of zinc acetate alone, a mixture of zinc acetate and a dipeptide listed in Table 1 at a molar ratio of dipeptide to zinc of 1:1, or a complex of zinc and L- or D-carnosine at a molar ratio of dipeptide to complex of 1:1. Each test composition was administered to the duodenum of ether-anesthetized rat as a solution or suspension in physiological saline. The dose of the composition was 10 mg/kg body weight as zinc in each case. Blood samples were collected before administration, and 1,3,5 and 7 hours after the administration. Plasma levels of zinc were determined using Zn Test Wako Kit (available from Wako Pure Chemical Industries, Ltd.). […] The bioavailability (BA) of zinc was calculated by the above comparison.
Using the same method as above, the bioavailability of zinc was determined at varying molar ratios of L-carnosine to zinc from zero to 30. The results are shown in FIG. 1 of the accompanying drawings.
The dose of a 1:1 molar mixture of L-carnosine and zinc acetate was varied from 3 mg/kg to 100 mg/kg in terms of zinc. Analogous to Part 1, AUCs and bioavalabilities were determined and compared with those of administration of zinc acetate alone. The results are shown in FIG. 2 of the accompanying drawing.

BA (%) bioavailability of zinc (rat, in vivo) [%]	Molecule	absorption promoting action (in words) (rat, in vivo)	other results
–	NCCC(=O)N[C@H](Cc1cnc[nH]1)C(=O)O [D-carnosine]	not	–
–	NCCC(=O)N[C@@H](Cc1cnc[nH]1)C(=O)O [L-carnosine, N-β-alanyl-L-histidine]	exhibited a similar absorption promoting action	bioavailability of zinc at varying molar ratios of L-carnosine to zinc (FIG. 1) (rat, in vivo): increased with increase in the molar ratio
–	CC(=O)[O-].CC(=O)[O-].[Zn+2] [Zinc acetate]	–	BA (%) bioavailability of zinc (fasted Wistar rats, administered to the duodenum, 10 mg/kg as zinc, dipeptide:zinc 1:1, AUC up to 7 hours vs i.v. zinc acetate 1 mg/kg): 8.6 ± 0.3%
6.7 ± 0.8	D-carnosine zinc complex	–	–
11.7 ± 0.4	L-carnosine zinc complex	–	–
